Reference: ChEMBL document CHEMBL1201862, “PubChem BioAssay data set” (2004)
Calls of active or inactive are those of the source.

Assays:
[1] = tested on: Vero; assay: cells; type: functional, cell-based; conditions: Chlorocebus sabaeus
[2] = tested on: Streptococcus; assay: GAS UMAA2166 growth inhibition – luminescence, BacTiterGlo, counter-screen for streptokinase expression inhibitor project, dose response (AID 1915); type: functional, organism-based;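 also: potency for reduction of bacterial viability or growth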
[3] = tested on: Streptococcus sp. 'group A'; assay: Streptococcus pyogenes SK(-)GAS viability under kanamycin – luminescence, BacTiterGlo, confirmation, counter-screen for streptokinase expression inhibitor project, dose response (AID 1900); type: functional, organism-based
[4] = target: Disintegrin and metalloproteinase domain-containing protein 17 (Homo sapiens, UniProt P78536); assay: inhibition of ADAM17 substrate cleavage – biochemical, quenched FRET substrate, counter-screen for ADAM10 exosite inhibitor project, dose response (AID 743253)
Sequence of Disintegrin and metalloproteinase domain-containing protein 17 (P78536 whole entry, the tested form may be a part): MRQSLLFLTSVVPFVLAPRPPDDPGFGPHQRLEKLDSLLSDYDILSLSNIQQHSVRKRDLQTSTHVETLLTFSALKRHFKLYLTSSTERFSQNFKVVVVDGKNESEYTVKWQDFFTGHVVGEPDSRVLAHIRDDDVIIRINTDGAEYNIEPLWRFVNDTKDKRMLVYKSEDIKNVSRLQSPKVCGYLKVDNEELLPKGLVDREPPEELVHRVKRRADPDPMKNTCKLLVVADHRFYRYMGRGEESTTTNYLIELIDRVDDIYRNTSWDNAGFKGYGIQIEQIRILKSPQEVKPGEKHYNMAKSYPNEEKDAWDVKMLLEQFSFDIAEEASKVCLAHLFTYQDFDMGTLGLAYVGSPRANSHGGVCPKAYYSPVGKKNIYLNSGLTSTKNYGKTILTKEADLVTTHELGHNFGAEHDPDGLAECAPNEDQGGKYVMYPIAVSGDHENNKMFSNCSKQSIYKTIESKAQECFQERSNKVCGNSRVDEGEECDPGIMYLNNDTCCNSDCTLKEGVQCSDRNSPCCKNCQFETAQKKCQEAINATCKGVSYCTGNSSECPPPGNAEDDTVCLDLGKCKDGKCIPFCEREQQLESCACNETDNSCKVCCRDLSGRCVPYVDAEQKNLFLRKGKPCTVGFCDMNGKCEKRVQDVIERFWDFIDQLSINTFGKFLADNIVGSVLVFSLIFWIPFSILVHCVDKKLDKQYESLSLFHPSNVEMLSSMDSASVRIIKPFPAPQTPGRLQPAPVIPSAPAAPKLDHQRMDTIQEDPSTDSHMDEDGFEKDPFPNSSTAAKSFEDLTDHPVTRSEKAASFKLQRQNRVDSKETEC

[5] = target: T1, Streptokinase A (Streptococcus pyogenes serotype M1, UniProt P10520); assay: viability-normalized secreted streptokinase activity reduction – plasminogen activation absorbance, OD405, dose response (AID 1914); type: functional, Streptococcus pyogenes M1 GAS;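 also: secreted streptokinase activity via plasminogen activation per viability signal from cell pellet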
T1 sequence (P10520 whole entry): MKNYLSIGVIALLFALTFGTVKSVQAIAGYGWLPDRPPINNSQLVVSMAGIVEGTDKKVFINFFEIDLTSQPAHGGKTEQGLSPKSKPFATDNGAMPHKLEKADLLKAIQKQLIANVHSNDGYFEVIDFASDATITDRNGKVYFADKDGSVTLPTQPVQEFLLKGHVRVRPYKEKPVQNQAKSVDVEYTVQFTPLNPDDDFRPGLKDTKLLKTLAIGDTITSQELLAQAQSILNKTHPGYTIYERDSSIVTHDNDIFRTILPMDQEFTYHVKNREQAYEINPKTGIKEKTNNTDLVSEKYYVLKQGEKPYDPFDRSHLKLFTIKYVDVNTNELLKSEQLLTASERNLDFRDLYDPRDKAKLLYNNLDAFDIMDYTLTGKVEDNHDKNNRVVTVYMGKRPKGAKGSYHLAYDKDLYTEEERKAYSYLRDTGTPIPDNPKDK

[6] = cells; type: functional, cell-based
[7] = target: T2, Calpain-2 catalytic subunit (Sus scrofa, UniProt P43367); assay: m-calpain protease blockers, concentration series – biochemical, fluorogenic peptide substrate, dose response (AID 1420); type: functional
T2 sequence (P43367 whole entry): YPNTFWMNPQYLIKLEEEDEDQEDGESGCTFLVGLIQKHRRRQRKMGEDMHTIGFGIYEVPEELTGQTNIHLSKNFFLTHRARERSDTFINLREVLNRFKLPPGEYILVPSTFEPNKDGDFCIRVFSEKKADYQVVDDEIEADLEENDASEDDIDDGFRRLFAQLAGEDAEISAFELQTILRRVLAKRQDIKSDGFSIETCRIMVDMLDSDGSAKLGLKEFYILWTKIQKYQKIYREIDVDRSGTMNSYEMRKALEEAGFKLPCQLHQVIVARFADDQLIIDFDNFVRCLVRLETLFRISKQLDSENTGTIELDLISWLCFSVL

[8] = cells; type: functional, cell-based; remark: listed apart in the source
[9] = microbe, parasite or virus in culture; type: functional; conditions: Mycobacterium tuberculosis
[10] = target: T3, Microphthalmia-associated transcription factor (Homo sapiens, UniProt O75030); assay: reducers of TRPM1 reporter luminescence, concentration series – cell-based, SK-MEL-5, cherry-picked, set 3, MITF inhibitor project, dose response (AID 493073); type: functional;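 also: SK-MEL-5 melanoma cells with luciferase driven by the MITF target TRPM1 promoter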
T3 sequence (O75030 whole entry): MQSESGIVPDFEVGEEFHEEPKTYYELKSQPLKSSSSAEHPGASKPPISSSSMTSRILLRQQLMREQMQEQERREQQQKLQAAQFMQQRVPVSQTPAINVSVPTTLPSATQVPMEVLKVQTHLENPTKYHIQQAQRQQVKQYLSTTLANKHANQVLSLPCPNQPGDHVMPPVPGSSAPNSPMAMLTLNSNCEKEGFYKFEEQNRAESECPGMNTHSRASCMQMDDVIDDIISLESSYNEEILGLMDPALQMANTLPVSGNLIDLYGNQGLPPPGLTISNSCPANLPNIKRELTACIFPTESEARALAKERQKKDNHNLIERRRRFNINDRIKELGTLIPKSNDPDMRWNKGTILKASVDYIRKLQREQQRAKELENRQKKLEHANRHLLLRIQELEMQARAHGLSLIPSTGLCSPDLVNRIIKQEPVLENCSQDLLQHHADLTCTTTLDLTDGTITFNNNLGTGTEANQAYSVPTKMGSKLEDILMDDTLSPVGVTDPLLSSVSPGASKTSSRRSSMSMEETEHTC

[11] = target: T4, Protein RecA (Mycobacterium tuberculosis, UniProt P9WHJ3); assay: Fluorescence Cell-Free Homogeneous Dose Retest to Identify Inhibitors of RecA-Intein Splicing Activity. [Related pubchem assays (depositor defined):AID2097, AID2223, AID489010, AID492950]; type: functional
T4 sequence (P9WHJ3 whole entry): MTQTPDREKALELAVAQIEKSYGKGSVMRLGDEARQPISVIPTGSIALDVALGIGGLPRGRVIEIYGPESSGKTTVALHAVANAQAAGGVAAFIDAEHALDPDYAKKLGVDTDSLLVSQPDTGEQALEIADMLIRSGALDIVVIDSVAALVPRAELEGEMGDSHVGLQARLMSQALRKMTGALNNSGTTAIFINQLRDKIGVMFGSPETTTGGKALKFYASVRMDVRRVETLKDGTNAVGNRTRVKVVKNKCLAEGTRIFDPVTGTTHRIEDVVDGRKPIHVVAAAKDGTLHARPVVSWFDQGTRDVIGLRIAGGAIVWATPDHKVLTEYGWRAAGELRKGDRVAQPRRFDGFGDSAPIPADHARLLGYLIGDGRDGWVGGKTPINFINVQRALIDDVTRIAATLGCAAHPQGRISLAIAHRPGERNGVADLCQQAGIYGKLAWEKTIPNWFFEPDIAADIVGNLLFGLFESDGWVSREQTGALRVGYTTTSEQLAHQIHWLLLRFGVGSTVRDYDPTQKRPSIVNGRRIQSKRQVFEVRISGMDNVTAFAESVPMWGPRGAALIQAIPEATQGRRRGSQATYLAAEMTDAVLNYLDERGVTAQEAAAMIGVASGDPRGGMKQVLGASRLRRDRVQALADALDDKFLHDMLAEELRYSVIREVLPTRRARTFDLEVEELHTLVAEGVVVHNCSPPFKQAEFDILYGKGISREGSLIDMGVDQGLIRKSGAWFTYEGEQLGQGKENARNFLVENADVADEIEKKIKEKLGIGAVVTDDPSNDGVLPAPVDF

[12] = target: T5, Replicative DNA helicase DnaB (Mycobacterium tuberculosis, UniProt P9WMR3); assay: DnaB intein splicing inhibitors, dose response, biochemical, cell-free fluorescence (AID 449749); type: functional
T5 sequence (P9WMR3 whole entry): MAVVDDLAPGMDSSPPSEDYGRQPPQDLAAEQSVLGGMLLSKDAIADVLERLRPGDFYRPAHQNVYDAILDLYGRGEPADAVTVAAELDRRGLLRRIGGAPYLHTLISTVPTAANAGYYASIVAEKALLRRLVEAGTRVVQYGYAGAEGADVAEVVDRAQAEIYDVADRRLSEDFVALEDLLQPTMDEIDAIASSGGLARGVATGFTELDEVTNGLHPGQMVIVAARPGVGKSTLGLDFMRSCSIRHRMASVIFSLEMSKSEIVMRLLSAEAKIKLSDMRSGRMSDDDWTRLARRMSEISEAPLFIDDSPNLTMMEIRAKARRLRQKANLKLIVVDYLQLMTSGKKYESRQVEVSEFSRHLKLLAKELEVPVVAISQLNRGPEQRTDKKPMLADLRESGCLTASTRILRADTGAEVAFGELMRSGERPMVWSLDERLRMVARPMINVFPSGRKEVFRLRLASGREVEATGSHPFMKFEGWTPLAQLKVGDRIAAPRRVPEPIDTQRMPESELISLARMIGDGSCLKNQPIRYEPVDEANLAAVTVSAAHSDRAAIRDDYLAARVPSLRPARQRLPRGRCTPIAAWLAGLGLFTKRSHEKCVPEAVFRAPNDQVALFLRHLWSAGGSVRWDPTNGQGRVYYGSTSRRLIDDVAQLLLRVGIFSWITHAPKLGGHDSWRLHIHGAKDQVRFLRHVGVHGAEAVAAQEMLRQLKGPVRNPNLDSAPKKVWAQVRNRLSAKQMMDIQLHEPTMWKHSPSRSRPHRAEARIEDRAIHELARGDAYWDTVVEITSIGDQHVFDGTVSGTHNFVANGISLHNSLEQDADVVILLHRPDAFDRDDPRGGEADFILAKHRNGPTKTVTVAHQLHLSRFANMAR

[13] = tested on: H9c2; assay: cells; type: functional, cell-based; conditions: Rattus norvegicus, H9c2, Myocardium;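 also: confirmatory concentration-response retest of ultra-high-throughput screening hits for modulation of myocardial damage; cell death induced by hydrogen peroxide oxidative stress; compound pretreatment for 60 min then peroxide exposure for 2 h; potency is for protecting the cells against peroxide damage rather than for killing them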
[14] = off-target signal loss in HeLa-CEM21 co-culture – HeLa F-luc CTL cells, cherry-picked, counter-screen for HIV-1 Env fusion inhibitor project, dose response (AID 652040); type: functional, cell-based;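 also: potency for signal decrease marking cytotoxic or nonspecific inhibition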
[15] = HIV-1 AD8 envelope cell-cell fusion blockers – cherry-pick, dose response (AID 652062); type: functional, cell-based;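 also: luciferase signal from cell-cell fusion driven by HIV-1 clade B AD8 Env; potency is for inhibitors of fusion seen as a drop in luminescence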
[16] = blockers of HIV-1 envelope-mediated cell-cell fusion – cherry-pick, dose response (AID 652057); type: functional, cell-based
[17] = blockers of HIV-1 ZM109 envelope-driven cell-cell fusion – HeLa effector, CEM target cells, luciferase, cherry-pick, dose response (AID 652058); type: functional, cell-based;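 also: luciferase signal from HIV-1 Env mediated cell-cell fusion of effector and target cells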
[18] = target: Induced myeloid leukemia cell differentiation protein Mcl-1 (Homo sapiens, UniProt Q07820); type: functional
Sequence of Induced myeloid leukemia cell differentiation protein Mcl-1 (Q07820 whole entry): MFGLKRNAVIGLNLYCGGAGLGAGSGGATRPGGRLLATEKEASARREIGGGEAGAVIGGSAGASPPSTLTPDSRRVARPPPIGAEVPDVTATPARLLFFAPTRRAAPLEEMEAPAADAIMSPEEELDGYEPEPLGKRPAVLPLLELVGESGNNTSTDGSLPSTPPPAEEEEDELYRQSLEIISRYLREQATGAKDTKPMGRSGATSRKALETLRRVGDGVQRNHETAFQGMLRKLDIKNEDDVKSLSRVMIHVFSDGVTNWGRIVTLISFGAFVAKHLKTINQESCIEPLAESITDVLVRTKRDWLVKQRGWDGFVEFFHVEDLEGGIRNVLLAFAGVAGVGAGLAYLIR

[19] = Luminescence Cell-Based Dose Retest to Confirm Inhibitors of Cancer Stem Cells. [Related pubchem assays (depositor defined):AID2717, AID2721]; type: functional; conditions: Homo sapiens
[20] = viability of uninfected HEp-2 cells – cell-based, HTS, cytotoxicity control for RSV inhibitor project, dose response (AID 2410); type: functional; conditions: human respiratory syncytial virus
[21] = intracellular Trypanosoma cruzi inhibitors in host cells – cell-based, plate reader, cherry-pick samples, set 3, dose response (AID 651818); type: functional;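 also: compounds incubated with infected cells for about four days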
[22] = target: Paired box protein Pax-8 (Homo sapiens, UniProt Q06710); assay: PAX8 transcriptional activity inhibition in RMG-I – RMG-I cells, luciferase, cherry-pick, dose response (AID 687027); type: functional, cell-based;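 also: luciferase reporter driven by Pax8 target thyroperoxidase promoter measured by SteadyGlo luminescence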
Sequence of Paired box protein Pax-8 (Q06710 whole entry): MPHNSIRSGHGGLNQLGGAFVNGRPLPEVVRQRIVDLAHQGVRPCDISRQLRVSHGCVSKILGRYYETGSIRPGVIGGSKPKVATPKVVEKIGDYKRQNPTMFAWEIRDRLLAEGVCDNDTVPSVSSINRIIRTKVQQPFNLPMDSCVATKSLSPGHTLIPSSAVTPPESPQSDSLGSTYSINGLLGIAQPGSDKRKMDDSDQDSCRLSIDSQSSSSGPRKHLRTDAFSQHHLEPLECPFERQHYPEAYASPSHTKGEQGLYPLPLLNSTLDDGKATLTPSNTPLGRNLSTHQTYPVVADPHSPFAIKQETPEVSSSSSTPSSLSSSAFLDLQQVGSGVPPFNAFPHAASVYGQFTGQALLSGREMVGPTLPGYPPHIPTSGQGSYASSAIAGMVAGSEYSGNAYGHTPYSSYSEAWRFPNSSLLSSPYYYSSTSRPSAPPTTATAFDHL

COCCN=C(S)NCc1ccc2[nH]c3c(c2c1)CCCC3
IC50 [1]: 23.6 µM (active)

O=C(OCc1csc(Nc2ccccc2)n1)c1ccc(Cl)cc1
EC50 [2]: > 150 µM (not active)
EC50 [3]: 12.8 µM (active)
IC50 [4]: > 69.5 µM (inactive)
EC50 [5]: 34.2 µM (active)

O=C(c1ccc(-c2nnc(-c3ccccc3)o2)cc1)N1CCCCCC1
EC50 [6]: > 350 µM (not active)
IC50 [7]: 11 µM (not active)
EC50 [8]: 5.78 µM (active)

O=C(CSc1nnnn1-c1ccc2c(c1)OCCO2)OC1CCCCC1
IC50 [7]: 10.3 µM (not active)

Cc1ccc2c(c1)nnn2C1CCN(S(=O)(=O)c2ccc(C(=O)N3CC(C)CC(C)C3)cc2)CC1 (stereo not given)
IC50 [7]: 3.74 µM (not active)

Cc1ccc(NC(=O)CCl)cc1S(=O)(=O)N1CCCCCC1
CC50 [9]: 6.13 µM (active)
AC50 [10]: 7.55 µM (active)
EC50 [11]: 3.67 µM (active)
AC50 [12]: 14.7 µM (active)

O=C(CCCCn1c(=O)c2ccccc2n(CC(=O)NC2CCCC2)c1=O)NCc1ccco1
IC50 [7]: 28.8 µM (not active)

O=C1OCCN1C(=O)[C@H]1[C@H](c2ccc([N+](=O)[O-])cc2)C(c2cccc(Cl)c2)=NN1c1ccc(Br)cc1
IC50 [13]: > 79 µM (inactive)
IC50 [4]: > 69.5 µM (inactive)

COc1ccc(N2C(=O)N3[C@H](c4ccc(Cl)cc4)[C@@H]4C(=O)N(C5CCCCC5)C(=O)[C@@H]4[C@]3(C)C2=O)cc1
AC50 [14]: 3.54 µM (active)
AC50 [15]: 5.1 µM (active)
AC50 [16]: 2.73 µM (active)
AC50 [17]: 3.16 µM (active)

Cc1cc(C)n2nc(NCc3cccc(Br)c3)nc2n1
AC50 [14]: 7.14 µM (active)
AC50 [15]: 2.92 µM (active)
AC50 [16]: 7.45 µM (active)
AC50 [17]: 7.3 µM (active)

CCc1ccc(-c2cc3c(=O)n(CC(=O)NCCCN4CCN(CC)CC4)nc(C)n3n2)cc1
IC50 [1]: > 25 µM (active)

Oc1c(Cl)cc(Cl)cc1/C=C/c1ccc2cccc(O)c2n1
IC50 [18]: 6.97 µM (not active)

Cc1ccc(NC2=NCC(Cc3ccc(Br)cc3)S2)cc1 (stereo not given)
EC50 [2]: 10.4 µM (active)
EC50 [3]: 6.42 µM (active)
IC50 [7]: 5.89 µM (not active)
EC50 [5]: > 150 µM (not active)
AC50 [19]: 6.43 µM (active)

CCOC(=O)c1c(N)sc(C(O)(C(F)(F)F)C(F)(F)F)c1-c1ccc(Cl)cc1
EC50 [2]: 10.1 µM (active)
EC50 [3]: 1.96 µM (active)
IC50 [7]: 13.3 µM (not active)
CC50 [20]: 11.4 µM (active)
EC50 [5]: 6.86 µM (active)

COc1ccc(S(=O)(=O)Nc2ccc3c(c2)CC(=O)N([C@H](C)CO)C[C@@H](C)[C@H](CN(C)Cc2ccc(Cl)c(Cl)c2)O3)cc1
AC50 [21]: 1.94 µM (active)

C[C@@H]1CN([C@@H](C)CO)C(=O)c2cccc(NC(=O)c3nc4ccccc4s3)c2O[C@@H]1CN(C)Cc1ccc(C(=O)Nc2ccccc2N)cc1
AC50 [21]: 2.88 µM (active)

Cc1ccc(S(=O)(=O)Nc2ccc3c(c2)CC(=O)N([C@@H](C)CO)C[C@H](C)[C@@H](CN(C)Cc2ccc(C(=O)Nc4ccccc4N)cc2)O3)cc1
AC50 [21]: 2.74 µM (active)

C[C@@H]1CN([C@H](C)CO)C(=O)Cc2cc(NC(=O)Nc3cccc4ccccc34)ccc2O[C@H]1CN(C)Cc1ccc(C(F)(F)F)cc1
AC50 [21]: 3.46 µM (active)

C[C@H](CO)N1C[C@H](C)[C@@H](CN(C)Cc2ccc(Oc3ccccc3)cc2)Oc2c(NS(=O)(=O)c3ccc(Cl)cc3)cccc2C1=O
AC50 [21]: 3.36 µM (active)

C[C@@H]1CN([C@H](C)CO)C(=O)Cc2cc(NC(=O)Nc3ccc(F)cc3)ccc2O[C@@H]1CN(C)Cc1ccc(Cl)c(Cl)c1
AC50 [22]: 18.4 µM (active)
AC50 [21]: 4.89 µM (active)

Oc1c(Br)cc(/C=N/c2ccc3[nH]c(-c4ccccc4)nc3c2)c(O)c1Br
IC50 [18]: 1.49 µM (active)
